How the values were obtained:
[1] = system: MAC 15A adenocarcinoma of the colon; assay: In vitro chemosensitivity against MAC 15A adenocarcinoma (MTT assay); assay type: cell-based; details: Mus musculus, MAC15A, 96 hours continuous exposure
Protocol: In Vitro Activity Against MAC 15A Adenocarcinoma.
MAC 15A cells were grown in RPMI 1640 medium supplemented with 10% foetal calf serum containing a 1% antibiotic mixture under standard tissue culture conditions and were maintained at 37° C. in a humidified atmosphere of 5% CO2 in air. Cells were harvested from a stock culture in exponential growth phase and plated in 96-well flat-bottomed plates to achieve a final density of 2×10^3 cells per well. After 2 hours incubation medium was replaced with either fresh medium containing 0.5% DMSO (control) or medium containing test compound dissolved in DMSO at a concentrations from 10 mM to 1 nM. Chemosensitivity was assessed using MTT assay by the method of Plumb et al Cancer Research 49 (1989) 4435-4440.
Following 96 hours continuous exposure to drug at 37° C. cells were incubated with fresh drug-free medium immediately prior to addition of MTT solution (5 mg/ml). Medium and MTT were removed after 4 hours and 150 μl of DMSO was added. For each plate the absorbance of the resulting solution was measured at the analytical wavelength 550 nm for formazan product, using a Labsystem Mutiskan. IC50 values were obtained from growth curves of drug concentration against % survival and are expressed in μm.

[2] = biological target: T1, Topoisomerase IIβ (Homo sapiens, UniProt Q02880); assay: Topo II relaxation assay; assay type: biochemical; design: key: ‘—’ = Not active; details: unit not given; compound at 1, 10, 25 and 50 μM in protocol
Protocol: (§1) Topo II Relaxation Assay Protocol
(§2) 10×Topo II Relaxation Buffer
(§3) 500 mM Tris-HCl (pH 7.5); 100 mM mgCI2; 50 mM EDTA; 300 mg/mI BSA; 10 mM DTT; −20° C.

[3] = biological target: T2, Topoisomerase IIα (Homo sapiens, UniProt P11388); assay: Topo II relaxation assay; assay type: biochemical; design: key: ‘—’ = Not active; details: unit not given; compound at 1, 10, 25 and 50 μM in protocol
Protocol: as §1, §2, §3

[4] = biological target: T1, Topoisomerase IIβ; assay: Topo II decatenation assay; assay type: biochemical; details: unit not given; kDNA substrate; compound at 1, 10, 25 and 50 μM in protocol
Protocol: (§4) Topisomerase Decatenation Assay.
(§5) This method uses catenated DNA substrate prepared from the kinetoplast of the insect trypanosome Crithidia fasciculata. Upon incubation with topo II, which engages DNA in a double stranded breakage-reunion cycle, DNA minicircles are released. Addition of topo-inhibiting drugs may prevent decatenation.
(§6) Topo II Decatenation Assay Protocol
(§7) This assay is the same as the Topo II Relaxation assay except that the pBR 322 Plasmid DNA is replaced with kDNA.
(§8) Results are included in Table 3 below

[5] = biological target: T2, Topoisomerase IIα; assay: Topo II decatenation assay; assay type: biochemical; design: key: ‘—’ = Not active; details: unit not given; kDNA substrate; compound at 1, 10, 25 and 50 μM in protocol
Protocol: as §4, §5, §6, §7, §8

[6] = biological target: T3, Topoisomerase I (Homo sapiens, UniProt P11387); assay: Topo I cleavage assay; assay type: biochemical; details: at 10 μM
T3 sequence (P11387 1-765): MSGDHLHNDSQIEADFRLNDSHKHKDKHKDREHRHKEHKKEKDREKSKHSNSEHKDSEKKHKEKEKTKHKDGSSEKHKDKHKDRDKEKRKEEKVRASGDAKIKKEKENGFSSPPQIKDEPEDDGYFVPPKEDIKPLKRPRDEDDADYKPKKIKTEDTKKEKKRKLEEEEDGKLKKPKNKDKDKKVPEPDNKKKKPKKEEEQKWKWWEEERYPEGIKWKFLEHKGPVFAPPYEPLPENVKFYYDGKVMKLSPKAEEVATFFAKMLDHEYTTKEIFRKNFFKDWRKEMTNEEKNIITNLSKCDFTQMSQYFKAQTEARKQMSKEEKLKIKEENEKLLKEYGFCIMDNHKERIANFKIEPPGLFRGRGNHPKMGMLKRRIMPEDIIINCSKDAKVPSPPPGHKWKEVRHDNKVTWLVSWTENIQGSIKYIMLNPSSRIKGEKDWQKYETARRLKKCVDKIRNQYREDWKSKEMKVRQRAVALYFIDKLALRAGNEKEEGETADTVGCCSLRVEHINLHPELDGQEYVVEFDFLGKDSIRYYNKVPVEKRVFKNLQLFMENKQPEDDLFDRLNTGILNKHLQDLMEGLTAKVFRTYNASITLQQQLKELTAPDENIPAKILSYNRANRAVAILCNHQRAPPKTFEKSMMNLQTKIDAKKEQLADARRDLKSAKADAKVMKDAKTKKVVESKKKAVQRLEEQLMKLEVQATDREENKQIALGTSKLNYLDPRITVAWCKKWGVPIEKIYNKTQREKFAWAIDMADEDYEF

T2 sequence (P11388 whole entry): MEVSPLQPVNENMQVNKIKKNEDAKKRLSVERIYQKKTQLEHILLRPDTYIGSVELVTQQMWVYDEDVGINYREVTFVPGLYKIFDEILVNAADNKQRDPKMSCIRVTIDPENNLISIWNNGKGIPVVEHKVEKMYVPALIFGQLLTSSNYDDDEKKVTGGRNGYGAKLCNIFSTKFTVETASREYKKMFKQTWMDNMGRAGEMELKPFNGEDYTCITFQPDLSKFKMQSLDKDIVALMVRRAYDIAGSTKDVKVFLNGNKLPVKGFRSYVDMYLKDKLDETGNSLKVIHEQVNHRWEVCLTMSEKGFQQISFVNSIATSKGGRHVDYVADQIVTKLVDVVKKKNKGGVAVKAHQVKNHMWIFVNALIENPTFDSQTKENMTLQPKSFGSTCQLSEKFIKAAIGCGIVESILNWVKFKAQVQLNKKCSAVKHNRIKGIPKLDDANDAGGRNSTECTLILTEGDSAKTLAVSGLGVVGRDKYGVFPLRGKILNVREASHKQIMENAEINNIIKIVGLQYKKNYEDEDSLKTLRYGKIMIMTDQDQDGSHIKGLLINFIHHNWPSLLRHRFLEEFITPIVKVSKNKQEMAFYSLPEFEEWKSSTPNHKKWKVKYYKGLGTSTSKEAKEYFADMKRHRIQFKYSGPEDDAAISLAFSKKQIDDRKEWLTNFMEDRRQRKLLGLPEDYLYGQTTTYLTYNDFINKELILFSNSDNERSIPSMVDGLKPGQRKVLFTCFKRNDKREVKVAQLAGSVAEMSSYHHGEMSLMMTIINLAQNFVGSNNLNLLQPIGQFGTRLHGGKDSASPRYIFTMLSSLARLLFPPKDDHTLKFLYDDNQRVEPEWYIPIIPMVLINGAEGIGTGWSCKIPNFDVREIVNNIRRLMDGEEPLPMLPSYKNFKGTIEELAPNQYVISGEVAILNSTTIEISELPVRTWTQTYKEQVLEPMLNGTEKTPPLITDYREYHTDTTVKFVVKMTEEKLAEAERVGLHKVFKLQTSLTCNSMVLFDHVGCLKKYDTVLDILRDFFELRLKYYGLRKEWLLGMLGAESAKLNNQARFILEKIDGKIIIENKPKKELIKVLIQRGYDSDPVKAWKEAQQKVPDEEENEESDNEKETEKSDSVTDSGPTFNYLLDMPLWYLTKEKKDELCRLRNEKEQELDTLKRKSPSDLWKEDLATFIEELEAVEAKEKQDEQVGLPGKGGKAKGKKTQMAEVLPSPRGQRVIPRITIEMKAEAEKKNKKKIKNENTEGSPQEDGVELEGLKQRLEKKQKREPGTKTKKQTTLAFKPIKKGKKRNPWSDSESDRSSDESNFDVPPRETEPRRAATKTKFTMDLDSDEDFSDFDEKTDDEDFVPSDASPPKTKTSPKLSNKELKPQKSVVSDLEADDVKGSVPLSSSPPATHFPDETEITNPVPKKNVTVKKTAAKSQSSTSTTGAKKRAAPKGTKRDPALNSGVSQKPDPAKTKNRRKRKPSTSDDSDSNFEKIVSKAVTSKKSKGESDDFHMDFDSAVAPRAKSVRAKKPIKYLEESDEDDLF
T1 sequence (Q02880 whole entry): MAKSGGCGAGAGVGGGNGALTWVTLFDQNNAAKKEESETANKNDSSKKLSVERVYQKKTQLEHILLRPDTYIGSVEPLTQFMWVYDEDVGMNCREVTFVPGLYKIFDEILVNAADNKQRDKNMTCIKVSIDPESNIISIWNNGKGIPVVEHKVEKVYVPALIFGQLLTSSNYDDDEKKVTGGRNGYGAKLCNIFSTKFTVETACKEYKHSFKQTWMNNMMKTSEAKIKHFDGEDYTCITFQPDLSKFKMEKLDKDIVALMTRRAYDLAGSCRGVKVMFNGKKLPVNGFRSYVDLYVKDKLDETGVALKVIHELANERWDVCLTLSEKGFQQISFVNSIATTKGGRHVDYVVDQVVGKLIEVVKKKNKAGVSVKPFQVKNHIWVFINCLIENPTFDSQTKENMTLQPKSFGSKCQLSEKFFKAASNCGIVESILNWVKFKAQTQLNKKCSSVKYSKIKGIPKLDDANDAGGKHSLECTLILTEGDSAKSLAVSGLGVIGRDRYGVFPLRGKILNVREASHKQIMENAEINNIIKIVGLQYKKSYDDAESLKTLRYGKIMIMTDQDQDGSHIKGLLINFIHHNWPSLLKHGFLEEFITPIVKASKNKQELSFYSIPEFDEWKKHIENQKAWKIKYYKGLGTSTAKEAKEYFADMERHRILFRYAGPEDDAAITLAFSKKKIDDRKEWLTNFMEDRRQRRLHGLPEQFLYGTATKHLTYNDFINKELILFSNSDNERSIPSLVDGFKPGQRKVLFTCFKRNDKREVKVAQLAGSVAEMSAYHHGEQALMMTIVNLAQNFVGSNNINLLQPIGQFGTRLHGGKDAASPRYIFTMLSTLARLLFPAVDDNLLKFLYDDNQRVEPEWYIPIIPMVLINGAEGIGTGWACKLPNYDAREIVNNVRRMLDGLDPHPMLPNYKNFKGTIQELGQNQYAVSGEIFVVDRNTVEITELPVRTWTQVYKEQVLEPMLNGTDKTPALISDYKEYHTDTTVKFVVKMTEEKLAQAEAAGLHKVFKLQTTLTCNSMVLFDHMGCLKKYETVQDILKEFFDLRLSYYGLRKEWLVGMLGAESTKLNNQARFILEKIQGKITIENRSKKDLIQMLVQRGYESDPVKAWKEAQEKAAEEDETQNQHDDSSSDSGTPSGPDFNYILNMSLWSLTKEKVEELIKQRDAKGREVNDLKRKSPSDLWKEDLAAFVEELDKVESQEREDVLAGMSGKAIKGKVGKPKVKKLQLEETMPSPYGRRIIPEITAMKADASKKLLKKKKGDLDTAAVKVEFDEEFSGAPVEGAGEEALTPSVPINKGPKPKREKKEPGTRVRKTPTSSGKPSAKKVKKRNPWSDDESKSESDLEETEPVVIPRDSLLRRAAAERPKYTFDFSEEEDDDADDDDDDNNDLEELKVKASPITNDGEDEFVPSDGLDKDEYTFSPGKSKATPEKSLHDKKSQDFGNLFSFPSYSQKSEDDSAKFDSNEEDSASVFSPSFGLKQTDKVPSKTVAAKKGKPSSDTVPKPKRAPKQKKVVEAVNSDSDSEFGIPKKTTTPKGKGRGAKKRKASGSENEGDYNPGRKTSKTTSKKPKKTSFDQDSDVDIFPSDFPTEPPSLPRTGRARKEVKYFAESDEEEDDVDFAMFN

SMILES	IC50 [1]	TopIIβ Relax. [2]	TopIIα Relax. [3]	TopIIβ Decat. [4]	TopIIα Decat. [5]	nicked plasmid [6]
CC(C)[C@H](N)C(=O)OCCCNc1cccc2c1C(=O)c1ccccc1C2=O.O=C(O)C(F)(F)F [Example 35, 1-[3-(L-valyloxy)propylamino]anthracene-9,10-dione trifluoroacetate]	2.9 µM	—	—			
CC(C)[C@@H](N)C(=O)OCCCNc1cccc2c1C(=O)c1ccccc1C2=O.O=C(O)C(F)(F)F [Example 37, 1-[3-(D-valyloxy)propylamino]anthracene-9,10-dione trifluoroacetate]		—	—	25	—	
O=C(O)C(F)(F)F.O=C1c2ccccc2C(=O)c2c(NCCCCOC(=O)[C@H]3CCCN3)cccc21 [Example 49, 1-[4-(D-prolyloxy)butylamino]anthracene-9,10-dione trifluoroacetate]		25	25			
CC(C)[C@H](N)C(=O)OCCCNc1ccc(O)c2c1C(=O)c1c(O)cccc1C2=O.O=C(O)C(F)(F)F [Example 57, 4,8-dihydroxy-1-[3-(L-valyloxy)propylamino]anthracene-9,10-dione trifluoroacetate]	3.8 µM	25	—	25	—	
CC[C@@]1(O)C(=O)OCc2c1cc1n(c2=O)Cc2cc3ccccc3nc2-1 [campothecin, reference compound]						90%

— patent publication US20030203975A1, “Anti-cancer agents” (priority 1998, published 2003)
